The test system of one assay is RPP GEMMs. Description: Treatment study in autochthonous RPP GEMMs. The class given is in vivo, mouse. As for the experimental part:
(§1) All animal studies were reviewed and approved by the Institutional Animal Care and Use Committee (IACUC) at the New York University Langone Health (NYULH) and Dana-Farber Cancer Institute (DFCI). From 6 weeks of age, mice were induced with adenovirus-Cre recombinase (Ad-Cre) by intratracheal intubation to allow cre-lox-mediated recombination of floxed Rb1, p53 and p130 alleles. For syngeneic orthotopic models, ultrasound-guided transthoracic injection was performed using 200,000 RPP631, RP or RPP-MYC cells in 30 μL PBS directly into the lung of 6 to S-week-old C57BL/6 (Jackson Laboratory, Stock No: 000664). For OT-IT cell assay, OT-I mice were purchased from the Jackson Laboratory (Stock No: 003S31). Both males and females mice were used and all mice were maintained in accordance with the respective NYULH and DFCI on the care, welfare, and treatment of laboratory animals. […]
(§2) Animals were anesthetized with isoflurane to perform MRI of the lung field using BioSpec USR70/30 horizontal bore system (Bruker) to scan 24 consecutive sections. Tumor volumes within the whole lung were quantified using 3-D slicer software to reconstruct MRI volumetric measurements as described previously. […]

Assay [1] has as its system HAP1 cells expressing CDK7 wild-type (WT). Briefly: RT-qPCR of TNF and CXCL10 in HAP1 CDK7 WT cells. The conditions noted are these: 100 nM, 48 hr. The class given is cell-based, human. As for the experimental part:
Cell pellets were collected and then subjected to total RNA extraction using RNeasy Plus Mini Kit (QIAGEN, Cat #74136) according to the manufacturer's instructions, or using TRIzol:Chloroform phase-separation by centrifugation followed by RNA precipitation using isopropanol. The extracted RNA was reversely transcribed into cDNA using the High-Capacity RNA-to-cDNA™ Kit (Thermo Fisher Scientific, Cat #4387406) according to the manufacturer's instructions. The obtained cDNA samples were diluted and used for RT-qPCR. PowerUp™ SYBR™ Green Master Mix (Thermo Fisher Scientific, Cat #A25742) or TaqMan Gene Expression Master Mix (Life Technologies, Cat #4369514). Gene specific primers with sequences listed in Table 3 were used for PCR amplification and detection on the StepOnePlus™ Real-Time PCR System (Thermo Fisher Scientific). RT-qPCR data were normalized to Actb (mouse cells) or GUSB (human cells) and presented as fold changes of gene expression in the test sample compared to the control.
(In general: Quantitative PCR measures a nucleic acid by following its amplification.)

The next assay concerns the target T1, CDK7 (Mus musculus, UniProt Q03147).
T1 construct: from tissue
Briefly: In vivo target engagement by competitive pulldown assay. The conditions noted are these: 10 mg/kg. As for the experimental part: (§3) Bio-THZ1 pulldown experiments followed by western blotting of enriched proteins was performed as described in Kwiatkowski, et al., Nature, 2014, 511, 616-620. Briefly, cells were treated with YKL-5-124 or DMSO for 6 hr (in vitro) or 72 hr (in vivo). Following treatment, cells were washed twice with cold PBS and then lysed in the following lysis buffer: 50 mM TrisHCI pH 8.0, 150 mM NaCl, 1% NP-40, 5 mM EDTA, 1 mM DTT, and protease/phosphatase cocktails. Following clearance, lysates were treated with biotinylated THZ1 for pulldown overnight at 4° C. Lysates were further incubated at room temperature for 3 hr to increase the efficiency of covalent bond formation. Lysates were then incubated with streptavidin agarose for pulldown for an additional 2-3 hr at 4° C. Agarose beads were washed 5 times with lysis buffer and then boiled in 2×SDS at 95° C. SDS-page resolved precipitated proteins were probed for the indicated proteins.

The test system of a further assay is RPP631 and GLC16 cells. Description: Immunofluorescence of γH2AX foci and micronuclei. The class given is cell-based, mouse, human. The procedure: Before fixation, cells in PBS were seeded for 30 min on 0.01% Poly-lysine coated coverslip. Cells were then fixed in 4% paraformaldehyde (Diluted the 32% paraformaldehyde in PBS, Electron Microscopy Sciences 15714) for 10 min at room temperature. Cells were washed three times for 5 min with 200 mM glycine containing PBS, followed by permeabilization with 0.3% Triton X-100 in PBS for 15 min. After blocking with 5% bovine serum albumin (BSA) in PBS for 1 hour, cells were incubated with primary antibody (γH2A.X, Cell signaling 9718, 1:200) diluted in a 5% BSA in PBS solution overnight at 4° C. After washing four times with PBS, cells were incubated with Alexa Fluor Plus 555 (Invitrogen A32732, 1: 500) secondary antibody for 1 hour and washed three times with PBS. Cell nuclei were counterstained with DAPI (Biolengend 422801, diluted to 600 nM in PBS) for 5 min. Cells were washed two more times in PBS before mounting with Fluorescence Mounting Medium (Dako, S3023). Images were acquired using Zeiss 880 Laser Scanning Confocal Microscope and were processed by FIJI (NIH). Micronucleus were identified manually by distinct DAPI staining outside the main nucleus.

The next assay relates to RPP orthotopic model. Briefly: Treatment study in RPP orthotopic SCLC model. The class given is in vivo, mouse. The procedure: as §1, §2
For assay [2], the system named is C-terminal domain (CTD) phosphorylation of RNA Pol II. Briefly: Western blotting of RNA Pol II CTD phosphorylation in SCLC lines. The conditions noted are these: 24 hr. The class given is cell-based, mouse, human. As for the experimental part: Cells in culture were collected by centrifuging at 1,500 rpm and then washed with ice-cold PBS twice to completely remove residual medium. RIPA lysis buffer (Thermo Fisher Scientific, Cat #89900) supplemented with Halt™ Protease and Phosphatase Inhibitor Cocktail (Thermo Fisher Scientific, Cat #78440) was added to cell pellets to extract protein. Protein concentrations in lysates were measured by Pierce™ BCA Protein Assay Kit (Thermo Fisher Scientific, Cat #23225) and followed by the addition of SDS loading buffer (6×) and heated at 95° C. for 5 min. Equal amount of protein samples was subjected to 4-20% gradient gel SDS-PAGE and transferred to a nitrocellulose membrane (Bio-Rad, Cat #1704271). The membrane was blocked in Odyssey® Blocking Buffer (LI-COR, Cat #927-50003) at room temperature for 1 hour and incubated with appropriate antibodies at 4° C. overnight (Key Resources Table). Antibodies were diluted in TBST (TBS with 0.1% Tween) with 20% LI-COR Odyssey Blocking Buffer. On the next day, the membrane was washed with TBST (TBS with 0.1% Tween) four times and incubated with appropriate secondary antibodies (LI-COR, anti-Rabbit, Cat #925-32213; anti-Mouse, Cat #925-68072) at room temperature for 1 hour. Membranes were imaged using the LI-COR Odyssey® Imaging System.
Background: A western blot detects proteins with antibodies after separation by electrophoresis.

In assay [3] the test system is Cyclin K, the obligate binding partner of CDK12/13. Description: Competitive pulldown assay (Bio-THZ1), Cyclin K. The class given is cell-based, mouse. The conditions noted are these: SCLC cells treated 6 hours. The procedure:
as §3

T1 sequence (Q03147 2-346 limits assumed): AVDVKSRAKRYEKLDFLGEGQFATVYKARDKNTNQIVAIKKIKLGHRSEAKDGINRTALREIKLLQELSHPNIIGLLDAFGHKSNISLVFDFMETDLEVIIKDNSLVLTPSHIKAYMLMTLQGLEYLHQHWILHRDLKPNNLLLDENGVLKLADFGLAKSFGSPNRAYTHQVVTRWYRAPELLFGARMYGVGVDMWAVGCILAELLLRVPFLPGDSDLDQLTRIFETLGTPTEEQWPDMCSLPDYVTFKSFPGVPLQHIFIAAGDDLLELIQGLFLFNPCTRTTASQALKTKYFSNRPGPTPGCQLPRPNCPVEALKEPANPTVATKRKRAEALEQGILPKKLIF
T1 sequence (Q61458 whole entry partner): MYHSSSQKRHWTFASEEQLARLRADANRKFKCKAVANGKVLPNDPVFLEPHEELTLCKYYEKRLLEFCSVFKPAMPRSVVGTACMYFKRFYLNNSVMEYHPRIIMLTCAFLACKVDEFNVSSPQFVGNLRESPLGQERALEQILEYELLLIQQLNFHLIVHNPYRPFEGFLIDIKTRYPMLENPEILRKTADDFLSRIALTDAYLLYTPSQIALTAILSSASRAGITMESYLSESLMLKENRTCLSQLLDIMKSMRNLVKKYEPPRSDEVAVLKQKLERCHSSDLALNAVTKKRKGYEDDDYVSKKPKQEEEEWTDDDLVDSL
T1 sequence (P51949 whole entry partner): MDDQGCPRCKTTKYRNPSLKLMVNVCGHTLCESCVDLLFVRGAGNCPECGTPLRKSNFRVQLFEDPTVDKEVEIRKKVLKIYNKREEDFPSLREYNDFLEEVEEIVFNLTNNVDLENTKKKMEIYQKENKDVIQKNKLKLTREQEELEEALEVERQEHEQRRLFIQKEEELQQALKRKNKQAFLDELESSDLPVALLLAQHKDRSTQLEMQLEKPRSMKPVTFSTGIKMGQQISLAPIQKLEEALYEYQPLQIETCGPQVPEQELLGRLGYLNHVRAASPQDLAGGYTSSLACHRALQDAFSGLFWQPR

Turning to `C=CC(=O)Nc1ccc(C(=O)Nc2n[nH]c3c2CN(C(=O)N[C@H](CN(C)C)c2ccccc2)C3(C)C)cc1` [YKL-5-124], the “mice with more than 50% increase of tumor burden” value with RPP GEMMs (3-week time point) is on record as “none”. Further, the median overall survival in the assay on RPP GEMMs (RPP GEMMs) worked out at 56 days. Also, the “TNF and CXCL10 expression” value in assay [1] was “significant increase”. Further, the “target engagement in tumor-bearing mice” value at CDK7 was “further confirmed”. Besides, the “percentages of cells containing micronuclei” value with RPP631 and GLC16 cells (RPP631 and GLC16) is given as “considerably increased”. The γH2AX foci entry in the assay on RPP631 and GLC16 cells (after 48 hr) was “significant increase”. For the same compound, the “added median survival benefit” value with RPP orthotopic model (RPP model, vs control) is recorded as “approximately 30 days”. Besides, in the assay with RPP orthotopic model (RPP orthotopic model, 2- to 3-week), the “tumor response / tumor growth (MRI tumor volume)” value was “significant tumor response”. Besides, the “C-terminal domain (CTD) phosphorylation of RNA Pol II (Ser2, Ser5)” value in assay [2] is “no effect”. Moreover, the “block of pulldown of Cyclin K” value in assay [3] is “failed to block”.

For the origin of these results see patent US20230114207A1, “THE COMBINATION OF CYCLIN DEPENDENT KINASE 7 INHIBITOR AND IMMUNOTHERAPY FOR TREATMENT OF CANCER” (Dana-Farber Cancer Institute, Inc., priority 2019, published 2023).
